{"source": "the kinase profiling compilation of Christmann-Franck et al. (2016)", "assay_in_all_cases": "radiometric filter-binding kinase assay, Kinaseprofiler", "key": {"[1]": {"molecular_target": "PTK2 (human) (UniProt Q05397)", "conditions": "ATP 70 µM"}, "[2]": {"test_system": "EEF2K (human), O00418 [H23R]", "conditions": "ATP 15 µM"}, "[3]": {"molecular_target": "PRKX (human) (UniProt P51817)", "sequence (P51817 whole entry, looked up)": "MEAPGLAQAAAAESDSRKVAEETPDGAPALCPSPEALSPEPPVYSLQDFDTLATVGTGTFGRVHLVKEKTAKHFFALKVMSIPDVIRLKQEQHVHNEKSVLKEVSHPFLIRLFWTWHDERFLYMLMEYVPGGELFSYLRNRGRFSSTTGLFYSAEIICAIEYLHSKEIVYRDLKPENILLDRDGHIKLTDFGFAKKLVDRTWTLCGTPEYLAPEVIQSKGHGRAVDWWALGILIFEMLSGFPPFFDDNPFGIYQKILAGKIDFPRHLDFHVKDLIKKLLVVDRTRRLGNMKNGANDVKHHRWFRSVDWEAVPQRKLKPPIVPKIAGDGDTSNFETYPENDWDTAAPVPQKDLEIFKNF", "conditions": "ATP 200 µM"}, "[4]": {"molecular_target": "PRKAA2 PRKAB1 PRKAG1 (human) (UniProt P54619+P54646+Q9Y478)", "sequence (P54619 whole entry, looked up)": "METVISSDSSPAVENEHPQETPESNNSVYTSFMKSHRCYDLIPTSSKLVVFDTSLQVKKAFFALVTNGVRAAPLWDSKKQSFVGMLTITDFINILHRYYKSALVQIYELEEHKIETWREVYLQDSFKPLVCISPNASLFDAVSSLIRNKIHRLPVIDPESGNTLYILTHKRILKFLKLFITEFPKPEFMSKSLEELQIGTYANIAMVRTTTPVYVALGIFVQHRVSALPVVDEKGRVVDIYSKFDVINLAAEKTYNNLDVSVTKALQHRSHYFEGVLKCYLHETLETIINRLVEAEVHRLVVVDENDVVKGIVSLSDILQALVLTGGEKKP", "sequence (P54646 whole entry, looked up)": "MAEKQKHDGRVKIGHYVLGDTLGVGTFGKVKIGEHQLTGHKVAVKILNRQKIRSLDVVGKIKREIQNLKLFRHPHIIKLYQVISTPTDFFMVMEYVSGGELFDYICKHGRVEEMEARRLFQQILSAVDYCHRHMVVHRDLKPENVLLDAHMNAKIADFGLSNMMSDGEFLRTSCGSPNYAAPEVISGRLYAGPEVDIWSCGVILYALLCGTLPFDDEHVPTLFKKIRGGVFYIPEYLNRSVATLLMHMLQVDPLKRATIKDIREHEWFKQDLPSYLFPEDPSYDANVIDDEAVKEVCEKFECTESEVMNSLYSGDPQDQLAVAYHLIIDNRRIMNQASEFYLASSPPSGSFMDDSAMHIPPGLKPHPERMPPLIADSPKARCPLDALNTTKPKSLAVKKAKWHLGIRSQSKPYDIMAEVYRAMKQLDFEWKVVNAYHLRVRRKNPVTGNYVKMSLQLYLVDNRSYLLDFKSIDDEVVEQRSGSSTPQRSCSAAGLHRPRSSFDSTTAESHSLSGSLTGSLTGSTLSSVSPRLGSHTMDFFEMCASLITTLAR", "sequence (Q9Y478 whole entry, looked up)": "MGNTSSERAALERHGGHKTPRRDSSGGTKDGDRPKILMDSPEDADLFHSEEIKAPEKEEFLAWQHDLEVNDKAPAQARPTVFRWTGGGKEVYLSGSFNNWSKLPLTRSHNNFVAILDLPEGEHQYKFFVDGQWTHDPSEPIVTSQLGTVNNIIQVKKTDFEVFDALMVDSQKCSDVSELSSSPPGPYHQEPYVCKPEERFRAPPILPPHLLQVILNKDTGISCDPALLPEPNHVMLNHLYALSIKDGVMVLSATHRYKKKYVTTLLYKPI", "conditions": "ATP 45 µM"}, "[5]": {"molecular_target": "MELK (human) (UniProt Q14680)", "sequence (Q14680 whole entry, looked up)": "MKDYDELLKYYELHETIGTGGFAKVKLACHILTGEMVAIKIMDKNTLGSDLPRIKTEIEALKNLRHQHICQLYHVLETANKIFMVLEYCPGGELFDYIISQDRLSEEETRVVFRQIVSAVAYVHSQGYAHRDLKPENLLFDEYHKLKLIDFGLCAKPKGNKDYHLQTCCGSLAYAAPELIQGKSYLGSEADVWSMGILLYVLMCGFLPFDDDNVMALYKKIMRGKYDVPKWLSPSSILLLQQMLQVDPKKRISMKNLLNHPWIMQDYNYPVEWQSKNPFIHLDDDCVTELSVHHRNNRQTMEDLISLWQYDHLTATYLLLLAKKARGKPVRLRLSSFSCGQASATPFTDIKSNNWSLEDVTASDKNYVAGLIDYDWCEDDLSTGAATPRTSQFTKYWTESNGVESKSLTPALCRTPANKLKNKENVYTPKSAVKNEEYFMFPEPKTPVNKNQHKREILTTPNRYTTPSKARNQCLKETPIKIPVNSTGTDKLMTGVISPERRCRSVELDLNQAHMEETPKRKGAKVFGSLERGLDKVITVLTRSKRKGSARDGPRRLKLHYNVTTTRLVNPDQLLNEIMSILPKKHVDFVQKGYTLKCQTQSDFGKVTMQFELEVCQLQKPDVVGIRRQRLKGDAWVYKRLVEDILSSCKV", "conditions": "ATP 45 µM"}, "[6]": {"molecular_target": "TAOK1 (human) (UniProt Q7L7X3)", "conditions": "ATP 10 µM"}, "[7]": {"molecular_target": "MTOR (human) (UniProt P42345)", "conditions": "ATP 70 µM"}, "[8]": {"molecular_target": "FES (human) (UniProt P07332)", "conditions": "ATP 45 µM"}, "[9]": {"molecular_target": "AURKC (human) (UniProt Q9UQB9)", "conditions": "ATP 15 µM"}, "[10]": {"molecular_target": "DAPK1 (human) (UniProt P53355)", "conditions": "ATP 70 µM"}, "[11]": {"molecular_target": "RPS6KA5 KD1 KD2 (human) (UniProt O75582)", "conditions": "ATP 90 µM"}, "[12]": {"molecular_target": "PDGFRA (human) (UniProt P16234)", "conditions": "ATP 120 µM"}, "[13]": {"molecular_target": "PRKCD (human) (UniProt Q05655)", "conditions": "ATP 15 µM"}, "[14]": {"molecular_target": "PRKCB1 (human) (UniProt P05771)", "conditions": "ATP 10 µM"}, "[15]": {"molecular_target": "HCK (human) (UniProt P08631)", "sequence (P08631 whole entry, looked up)": "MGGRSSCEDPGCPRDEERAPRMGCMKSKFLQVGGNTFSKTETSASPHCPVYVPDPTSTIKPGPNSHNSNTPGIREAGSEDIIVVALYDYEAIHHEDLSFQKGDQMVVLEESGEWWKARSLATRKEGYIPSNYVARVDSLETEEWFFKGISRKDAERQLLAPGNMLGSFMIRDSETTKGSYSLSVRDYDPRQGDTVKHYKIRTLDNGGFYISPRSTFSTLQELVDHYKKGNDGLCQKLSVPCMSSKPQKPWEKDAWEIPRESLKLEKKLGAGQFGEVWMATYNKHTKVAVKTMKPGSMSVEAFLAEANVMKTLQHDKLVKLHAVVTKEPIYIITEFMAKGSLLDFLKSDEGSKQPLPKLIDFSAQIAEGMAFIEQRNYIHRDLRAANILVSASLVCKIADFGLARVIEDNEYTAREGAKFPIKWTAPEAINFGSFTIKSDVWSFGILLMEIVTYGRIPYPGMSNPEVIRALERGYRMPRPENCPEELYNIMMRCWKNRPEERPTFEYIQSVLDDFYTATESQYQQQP"}, "[16]": {"molecular_target": "TSSK1B (human) (UniProt Q9BXA7)", "conditions": "ATP 15 µM"}, "[17]": {"molecular_target": "FGFR4 (human) (UniProt P22455)", "conditions": "ATP 155 µM"}, "[18]": {"molecular_target": "GRK5 (human) (UniProt P34947)", "sequence (P34947 whole entry, looked up)": "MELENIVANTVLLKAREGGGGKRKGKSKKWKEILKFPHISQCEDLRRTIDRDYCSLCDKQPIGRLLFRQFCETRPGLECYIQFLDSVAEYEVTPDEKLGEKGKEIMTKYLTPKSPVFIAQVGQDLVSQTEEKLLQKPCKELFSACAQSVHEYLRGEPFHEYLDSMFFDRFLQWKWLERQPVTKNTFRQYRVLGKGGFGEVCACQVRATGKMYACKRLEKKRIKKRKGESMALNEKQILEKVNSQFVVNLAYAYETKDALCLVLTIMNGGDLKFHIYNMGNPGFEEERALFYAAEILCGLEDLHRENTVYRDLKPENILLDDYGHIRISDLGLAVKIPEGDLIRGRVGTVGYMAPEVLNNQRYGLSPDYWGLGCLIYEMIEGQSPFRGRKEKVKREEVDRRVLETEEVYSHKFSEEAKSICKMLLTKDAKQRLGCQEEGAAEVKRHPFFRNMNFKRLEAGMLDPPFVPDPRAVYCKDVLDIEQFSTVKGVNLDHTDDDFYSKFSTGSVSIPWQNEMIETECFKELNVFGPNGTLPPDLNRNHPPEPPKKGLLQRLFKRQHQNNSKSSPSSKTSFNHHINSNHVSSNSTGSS", "conditions": "ATP 15 µM"}, "[19]": {"molecular_target": "CDC42BPA (human) (UniProt Q5VT25)", "conditions": "ATP 45 µM"}, "[20]": {"molecular_target": "PLK3 (human) (UniProt Q9H4B4)", "conditions": "ATP 70 µM"}, "[21]": {"molecular_target": "MAPK13 (human) (UniProt O15264)", "sequence (O15264 whole entry, looked up)": "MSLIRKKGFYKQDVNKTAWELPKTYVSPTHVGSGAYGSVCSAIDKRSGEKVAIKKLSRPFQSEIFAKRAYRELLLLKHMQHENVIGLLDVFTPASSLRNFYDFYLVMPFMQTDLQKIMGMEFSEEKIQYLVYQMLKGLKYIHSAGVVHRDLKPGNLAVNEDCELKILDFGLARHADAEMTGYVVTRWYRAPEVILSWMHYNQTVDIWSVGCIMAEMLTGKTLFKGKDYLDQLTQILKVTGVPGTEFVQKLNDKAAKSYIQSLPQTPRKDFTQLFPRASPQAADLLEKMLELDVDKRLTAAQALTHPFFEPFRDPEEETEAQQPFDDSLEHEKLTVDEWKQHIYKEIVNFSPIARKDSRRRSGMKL", "conditions": "ATP 15 µM"}, "[22]": {"molecular_target": "CHUK (human) (UniProt O15111)", "conditions": "ATP 10 µM"}, "[23]": {"molecular_target": "ULK2 (human) (UniProt Q8IYT8)", "conditions": "ATP 15 µM"}, "[24]": {"molecular_target": "LYN (human) (UniProt P07948)", "conditions": "ATP 70 µM"}, "[25]": {"molecular_target": "ULK3 (human) (UniProt Q6PHR2)", "conditions": "ATP 10 µM"}, "[26]": {"molecular_target": "STK10 (human) (UniProt O94804)", "conditions": "ATP 200 µM"}, "[27]": {"molecular_target": "FGFR2 (human) (UniProt P21802)", "conditions": "ATP 90 µM"}, "[28]": {"molecular_target": "FGFR1 (human) (UniProt P11362)", "conditions": "ATP 200 µM"}, "[29]": {"molecular_target": "BTK (human) (UniProt Q06187)", "sequence (Q06187 whole entry, looked up)": "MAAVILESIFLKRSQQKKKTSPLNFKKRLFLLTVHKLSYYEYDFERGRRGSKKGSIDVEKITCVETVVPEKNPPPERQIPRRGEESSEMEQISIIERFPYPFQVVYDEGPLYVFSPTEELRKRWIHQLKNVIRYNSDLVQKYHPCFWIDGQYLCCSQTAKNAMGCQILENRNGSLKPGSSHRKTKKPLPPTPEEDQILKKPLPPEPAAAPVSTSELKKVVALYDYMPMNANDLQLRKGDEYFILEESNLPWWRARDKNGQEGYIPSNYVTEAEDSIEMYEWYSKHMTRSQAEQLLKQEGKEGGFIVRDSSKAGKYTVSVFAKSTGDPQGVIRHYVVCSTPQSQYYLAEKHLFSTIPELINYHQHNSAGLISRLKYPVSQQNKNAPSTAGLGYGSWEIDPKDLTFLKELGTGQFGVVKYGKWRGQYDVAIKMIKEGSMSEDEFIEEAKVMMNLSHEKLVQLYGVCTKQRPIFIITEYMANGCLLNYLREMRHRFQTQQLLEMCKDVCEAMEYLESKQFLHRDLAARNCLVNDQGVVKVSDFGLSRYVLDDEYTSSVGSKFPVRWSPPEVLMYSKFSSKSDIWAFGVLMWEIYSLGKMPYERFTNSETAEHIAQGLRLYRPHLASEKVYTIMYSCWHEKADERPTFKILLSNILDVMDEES", "conditions": "ATP 200 µM"}, "[30]": {"molecular_target": "MAP2K6 (human) (UniProt P52564)", "conditions": "ATP 10 µM"}, "[31]": {"molecular_target": "CAMK2D (human) (UniProt Q13557)", "conditions": "ATP 10 µM"}, "[32]": {"test_system": "IRAK4 (human), Q9NWZ3 [A81V]", "sequence (Q9NWZ3 whole entry, looked up, stated change not applied)": "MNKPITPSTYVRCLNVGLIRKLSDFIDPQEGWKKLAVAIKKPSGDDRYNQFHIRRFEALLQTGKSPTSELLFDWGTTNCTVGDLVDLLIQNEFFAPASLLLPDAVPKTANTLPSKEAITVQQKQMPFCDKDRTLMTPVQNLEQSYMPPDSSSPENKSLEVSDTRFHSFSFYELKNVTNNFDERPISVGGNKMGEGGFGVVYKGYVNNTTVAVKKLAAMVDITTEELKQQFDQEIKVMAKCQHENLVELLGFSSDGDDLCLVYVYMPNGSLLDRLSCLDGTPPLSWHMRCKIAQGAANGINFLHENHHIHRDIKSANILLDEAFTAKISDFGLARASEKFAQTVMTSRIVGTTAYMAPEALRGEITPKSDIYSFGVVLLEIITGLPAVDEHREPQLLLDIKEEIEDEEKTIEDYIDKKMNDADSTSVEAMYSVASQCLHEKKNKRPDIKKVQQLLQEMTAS", "conditions": "ATP 200 µM"}}, "data": [{"smiles": "O=C1Nc2ccccc2/C1=C1\\Nc2ccccc2\\C1=N/O", "values": [{"measurement": "residual activity", "setting": "[1]; compound 1.0 µM", "value": 39, "unit": "%"}, {"measurement": "residual activity", "setting": "[1]; compound 10.0 µM", "value": 2, "unit": "%"}, {"measurement": "residual activity", "setting": "[2]; compound 1.0 µM", "value": 109, "unit": "%"}, {"measurement": "residual activity", "setting": "[2]; compound 10.0 µM", "value": 93, "unit": "%"}, {"measurement": "residual activity", "setting": "[3]; compound 1.0 µM", "value": 48, "unit": "%"}, {"measurement": "residual activity", "setting": "[3]; compound 10.0 µM", "value": 33, "unit": "%"}, {"measurement": "residual activity", "setting": "[4]; compound 1.0 µM", "value": 1, "unit": "%"}, {"measurement": "residual activity", "setting": "[4]; compound 10.0 µM", "value": 3, "unit": "%"}, {"measurement": "residual activity", "setting": "[5]; compound 1.0 µM", "value": 15, "unit": "%"}, {"measurement": "residual activity", "setting": "[5]; compound 10.0 µM", "value": 7, "unit": "%"}, {"measurement": "residual activity", "setting": "[6]; compound 1.0 µM", "value": 83, "unit": "%"}, {"measurement": "residual activity", "setting": "[6]; compound 10.0 µM", "value": 39, "unit": "%"}, {"measurement": "residual activity", "setting": "[7]; compound 1.0 µM", "value": 100, "unit": "%"}, {"measurement": "residual activity", "setting": "[7]; compound 10.0 µM", "value": 98, "unit": "%"}, {"measurement": "residual activity", "setting": "[8]; compound 1.0 µM", "value": 72, "unit": "%"}, {"measurement": "residual activity", "setting": "[8]; compound 10.0 µM", "value": 30, "unit": "%"}, {"measurement": "residual activity", "setting": "[9]; compound 1.0 µM", "value": 61, "unit": "%"}, {"measurement": "residual activity", "setting": "[9]; compound 10.0 µM", "value": 49, "unit": "%"}, {"measurement": "residual activity", "setting": "[10]; compound 1.0 µM", "value": 91, "unit": "%"}, {"measurement": "residual activity", "setting": "[10]; compound 10.0 µM", "value": 67, "unit": "%"}, {"measurement": "residual activity", "setting": "[11]; compound 1.0 µM", "value": 61, "unit": "%"}, {"measurement": "residual activity", "setting": "[11]; compound 10.0 µM", "value": 21, "unit": "%"}, {"measurement": "residual activity", "setting": "[12]; compound 1.0 µM", "value": 87, "unit": "%"}, {"measurement": "residual activity", "setting": "[12]; compound 10.0 µM", "value": 37, "unit": "%"}, {"measurement": "residual activity", "setting": "[13]; compound 1.0 µM", "value": 85, "unit": "%"}, {"measurement": "residual activity", "setting": "[13]; compound 10.0 µM", "value": 80, "unit": "%"}, {"measurement": "residual activity", "setting": "[14]; compound 1.0 µM", "value": 93, "unit": "%"}, {"measurement": "residual activity", "setting": "[14]; compound 10.0 µM", "value": 94, "unit": "%"}, {"measurement": "residual activity", "setting": "[15]; compound 1.0 µM, ATP 45 µM", "value": 8, "unit": "%"}, {"measurement": "residual activity", "setting": "[15]; compound 1.0 µM, ATP 70 µM", "value": 15, "unit": "%"}, {"measurement": "residual activity", "setting": "[15]; compound 10.0 µM, ATP 45 µM", "value": 1, "unit": "%"}, {"measurement": "residual activity", "setting": "[15]; compound 10.0 µM, ATP 70 µM", "value": 5, "unit": "%"}, {"measurement": "residual activity", "setting": "[16]; compound 1.0 µM", "value": 78, "unit": "%"}, {"measurement": "residual activity", "setting": "[16]; compound 10.0 µM", "value": 53, "unit": "%"}, {"measurement": "residual activity", "setting": "[17]; compound 1.0 µM", "value": 100, "unit": "%"}, {"measurement": "residual activity", "setting": "[17]; compound 10.0 µM", "value": 45, "unit": "%"}, {"measurement": "residual activity", "setting": "[18]; compound 1.0 µM", "value": 92, "unit": "%"}, {"measurement": "residual activity", "setting": "[18]; compound 10.0 µM", "value": 58, "unit": "%"}, {"measurement": "residual activity", "setting": "[19]; compound 1.0 µM", "value": 142, "unit": "%"}, {"measurement": "residual activity", "setting": "[19]; compound 10.0 µM", "value": 135, "unit": "%"}, {"measurement": "residual activity", "setting": "[20]; compound 1.0 µM", "value": 96, "unit": "%"}, {"measurement": "residual activity", "setting": "[20]; compound 10.0 µM", "value": 91, "unit": "%"}, {"measurement": "residual activity", "setting": "[21]; compound 1.0 µM", "value": 90, "unit": "%"}, {"measurement": "residual activity", "setting": "[21]; compound 10.0 µM", "value": 82, "unit": "%"}, {"measurement": "residual activity", "setting": "[22]; compound 1.0 µM", "value": 76, "unit": "%"}, {"measurement": "residual activity", "setting": "[22]; compound 10.0 µM", "value": 57, "unit": "%"}, {"measurement": "residual activity", "setting": "[23]; compound 1.0 µM", "value": 93, "unit": "%"}, {"measurement": "residual activity", "setting": "[23]; compound 10.0 µM", "value": 59, "unit": "%"}, {"measurement": "residual activity", "setting": "[24]; compound 1.0 µM", "value": 8, "unit": "%"}, {"measurement": "residual activity", "setting": "[24]; compound 10.0 µM", "value": 2, "unit": "%"}, {"measurement": "residual activity", "setting": "[25]; compound 1.0 µM", "value": 55, "unit": "%"}, {"measurement": "residual activity", "setting": "[25]; compound 10.0 µM", "value": 12, "unit": "%"}, {"measurement": "residual activity", "setting": "[26]; compound 1.0 µM", "value": 66, "unit": "%"}, {"measurement": "residual activity", "setting": "[26]; compound 10.0 µM", "value": 71, "unit": "%"}, {"measurement": "residual activity", "setting": "[27]; compound 1.0 µM", "value": 22, "unit": "%"}, {"measurement": "residual activity", "setting": "[27]; compound 10.0 µM", "value": 2, "unit": "%"}, {"measurement": "residual activity", "setting": "[28]; compound 1.0 µM", "value": 3, "unit": "%"}, {"measurement": "residual activity", "setting": "[28]; compound 10.0 µM", "value": -1, "unit": "%"}, {"measurement": "residual activity", "setting": "[29]; compound 1.0 µM", "value": 31, "unit": "%"}, {"measurement": "residual activity", "setting": "[29]; compound 10.0 µM", "value": 4, "unit": "%"}, {"measurement": "residual activity", "setting": "[30]; compound 1.0 µM", "value": 63, "unit": "%"}, {"measurement": "residual activity", "setting": "[30]; compound 10.0 µM", "value": 40, "unit": "%"}, {"measurement": "residual activity", "setting": "[31]; compound 1.0 µM", "value": 10, "unit": "%"}, {"measurement": "residual activity", "setting": "[31]; compound 10.0 µM", "value": 2, "unit": "%"}, {"measurement": "residual activity", "setting": "[32]; compound 1.0 µM", "value": 41, "unit": "%"}, {"measurement": "residual activity", "setting": "[32]; compound 10.0 µM", "value": 6, "unit": "%"}]}]}
